Assay results as given in ChEMBL document CHEMBL1152354, “Design, synthesis and identification of novel colchicine-derived immunosuppressant” (Bioorg Med Chem Lett, 2009).
pIC50: −log10 of the molar value. Active and inactive are the calls of the source. No cut-off for these calls is given here.

How the values were obtained:
Mus musculus = assay: Immunosuppressive activity in BALB/c mouse skin allografted C57BL/6 mouse assessed as survival of allograft skin at 1 mg/kg, ip administered daily; assay type: functional; details: route intraperitoneal
[1] = Antiproliferative activity against rat H42E cells assessed as cell number; assay type: cell-based
Splenocyte [2] = assay: Immunosuppressive activity in splenocytes assessed as inhibition of mixed lymphocyte reaction; assay type: functional, cell-based; details: for pIC50: Mus musculus, Splenocyte, read-out: IC50
[3] = Cytotoxicity against rat H42E cells assessed as release of alpha-glutathione S transferase; assay type: cell-based; details: read-out: TC50 (the source's name)
[4] = Cytotoxicity against rat H42E cells assessed as alteration in mitochondrial function by MTT assay; assay type: cell-based; details: read-out: TC50 (the source's name)
[5] = Cytotoxicity against rat H42E cells assessed as intracellular ATP level; assay type: cell-based; details: read-out: TC50 (the source's name)
Splenocyte [6] = assay: Ratio of IC50 of drug to IC50 of cyclosporin A for immunosuppressive activity in mouse splenocytes assessed as inhibition of allogenic mixed lymphocyte reaction; assay type: functional
Splenocyte [7] = assay: Immunosuppressive activity in mouse splenocytes assessed as inhibition of allogenic mixed lymphocyte reaction; assay type: functional, cell-based
[8] = Immunosuppressive activity in LPS-activated B lymphocyte assessed as inhibition of lymphoproliferation after 3 days by beta-scintillation counting; assay type: functional
[9] = Immunosuppressive activity in concanavalin A-activated T cell assessed as inhibition of lymphoproliferation after 3 days by beta-scintillation counting; assay type: functional, cell-based
RAW264.7 [10] = assay: Cytotoxicity against mouse RAW264.7 cells at 0.01 to 10 uM; assay type: cell-based; details: raw264.7, 10 µM
RAW264.7 [11] = assay: Immunosuppressive activity in mouse RAW264.7 cells assessed as inhibition of LPS-induced iNOS expression; assay type: functional, cell-based
RAW264.7 [12] = assay: Immunosuppressive activity in mouse RAW264.7 cells assessed as inhibition of LPS-induced TNFalpha expression level in at 0.01 to 10 uM; assay type: functional, cell-based
RAW264.7 [13] = assay: Immunosuppressive activity in mouse RAW264.7 cells assessed as inhibition of LPS-induced iNOS expression at 0.01 to 10 uM; assay type: functional, cell-based
RAW264.7 [14] = assay: Immunosuppressive activity in mouse RAW264.7 cells assessed as inhibition of LPS-induced NO production; assay type: functional, cell-based
RAW264.7 [15] = assay: Immunosuppressive activity in mouse RAW264.7 cells assessed as inhibition of LPS-induced NO production at 0.01 to 10 uM; assay type: functional, cell-based

pIC50 (Splenocyte [2]) | pIC50 (Splenocyte [7]) | Compound | also measured
 |  | C/C=C/C[C@@H](C)[C@@H](O)[C@H]1C(=O)N[C@@H](CC)C(=O)N(C)CC(=O)N(C)[C@@H](CC(C)C)C(=O)N[C@@H](C(C)C)C(=O)N(C)[C@@H](CC(C)C)C(=O)N[C@@H](C)C(=O)N[C@H](C)C(=O)N(C)[C@@H](CC(C)C)C(=O)N(C)[C@@H](CC(C)C)C(=O)N(C)[C@@H](C(C)C)C(=O)N1C [CYCLOSPORINE] | Survival (Mus musculus): 11.8 days
7.30 |  | COc1cc2c(c(OC)c1OC)-c1ccc(SC)c(=O)cc1[C@@H](NC(=O)c1ccc(Cl)c(CO[N+](=O)[O-])c1)CC2 | CC50 [1]: 300 µM; CC50 [3]: 300 µM; CC50 [4]: 300 µM; CC50 [5]: 300 µM
 | 7.15 | COc1cc2c(c(OC)c1OC)-c1ccc(OC)c(=O)cc1[C@@H](NC(=O)c1ccc(CO[N+](=O)[O-])cc1)CC2 | Ratio IC50 (Splenocyte [6]): 5
7.05 |  | COc1cc2c(c(OC)c1OC)-c1ccc(SC)c(=O)cc1[C@@H](NC(=O)c1cc(CO[N+](=O)[O-])ccc1Br)CC2 | 
7.14 |  | COc1cc2c(c(OC)c1OC)-c1ccc(SC)c(=O)cc1[C@@H](NC(=O)c1cc(CO[N+](=O)[O-])ccc1[N+](=O)[O-])CC2 | 
 | 6.49 | COc1cc2c(c(OC)c1OC)-c1ccc(OC)c(=O)cc1[C@@H](NC(=O)c1ccc(CCl)cc1)CC2 | Ratio IC50 (Splenocyte [6]): 7
 | 5.33 | COc1cc2c(c(OC)c1OC)-c1ccc(OC)c(=O)cc1[C@@H](NC(=O)CCCCl)CC2 | 
6.36 |  | COc1cc2c(c(OC)c1OC)-c1ccc(SC)c(=O)cc1[C@@H](NC(=O)c1cccc(CO[N+](=O)[O-])c1-c1ccccc1)CC2 | 
7.26 |  | COc1cc2c(c(OC)c1OC)-c1ccc(SC)c(=O)cc1[C@@H](NC(=O)c1ccc([N+](=O)[O-])c(CO[N+](=O)[O-])c1)CC2 | 
6.54 |  | COc1cc2c(c(OC)c1OC)-c1ccc(SC)c(=O)cc1[C@@H](NC(=O)c1cc(CO[N+](=O)[O-])ccc1C#N)CC2 | 
7.17 |  | COc1cc2c(c(OC)c1OC)-c1ccc(SC)c(=O)cc1[C@@H](NC(=O)c1ccc(I)c(CO[N+](=O)[O-])c1)CC2 | 
7.21 |  | COc1cc2c(c(OC)c1OC)-c1ccc(SC)c(=O)cc1[C@@H](NC(=O)c1cccc(CO[N+](=O)[O-])c1Br)CC2 | 
 | 5.60 | COc1cc2c(c(OC)c1OC)-c1ccc(N(C)C)c(=O)cc1[C@@H](NC(=O)c1ccc(CO[N+](=O)[O-])cc1)CC2 | 
7.07 |  | COc1cc2c(c(OC)c1OC)-c1ccc(SC)c(=O)cc1[C@@H](NC(=O)c1cccc(CO[N+](=O)[O-])c1I)CC2 | 
7.11 |  | COc1ccc(CO[N+](=O)[O-])cc1C(=O)N[C@H]1CCc2cc(OC)c(OC)c(OC)c2-c2ccc(SC)c(=O)cc21 | 
6.15 |  | COc1cc2c(c(OC)c1OC)-c1ccc(SC)c(=O)cc1[C@@H](NC(=O)c1cccc(CO[N+](=O)[O-])c1OC)CC2 | 
8.40 |  | COc1cc2c(c(OC)c1OC)-c1ccc(SC)c(=O)cc1[C@@H](NC(=O)c1cc(CO[N+](=O)[O-])ccc1Cl)CC2 | pIC50 [9]: 6.41

pIC50 (Splenocyte [2]) | pIC50 (Splenocyte [7]) | Compound | also measured
 | 8.00 | COc1cc2c(c(OC)c1OC)-c1ccc(OC)c(=O)cc1[C@@H](NC(=O)CCCO[N+](=O)[O-])CC2 | Ratio IC50 (Splenocyte [6]): 470
 | 5.20 | COc1cc2c(c(OC)c1OC)-c1ccc(OC)c(=O)cc1[C@@H](NC(=O)c1cccc(CCl)c1)CC2 | 
7.27 |  | COc1cc2c(c(OC)c1OC)-c1ccc(SC)c(=O)cc1[C@@H](NC(=O)c1ccc(-c3ccccc3)c(CO[N+](=O)[O-])c1)CC2 | 
7.82 |  | COc1ccc(C(=O)N[C@H]2CCc3cc(OC)c(OC)c(OC)c3-c3ccc(SC)c(=O)cc32)cc1CO[N+](=O)[O-] | 
 | 6.68 | COc1cc2c(c(OC)c1OC)-c1ccc(SC)c(=O)cc1[C@@H](NC(=O)CCCO[N+](=O)[O-])CC2 | pIC50 [8]: 9.00; pIC50 [9]: 6.24; Activity (RAW264.7 [10]): Non-toxic
 |  | COc1cc2c(c(OC)c1OC)-c1ccc(SC)c(=O)cc1[C@@H](NC(=O)c1cc(CO[N+](=O)[O-])ccc1-c1ccccc1)CC2 | IC50 (Splenocyte [2]; splenocyte): Not Active
7.24 |  | COc1cc2c(c(OC)c1OC)-c1ccc(SC)c(=O)cc1[C@@H](NC(=O)c1cccc(CO[N+](=O)[O-])c1C#N)CC2 | 
 | 5.18 | COc1cc2c(c(OC)c1OC)-c1ccc(N(C)C)c(=O)cc1[C@@H](NC(=O)CCCO[N+](=O)[O-])CC2 | 
7.31 |  | COc1cc2c(c(OC)c1OC)-c1ccc(SC)c(=O)cc1[C@@H](NC(=O)c1ccc(C#N)c(CO[N+](=O)[O-])c1)CC2 | 
 | 5.46 | COc1cc2c(c(OC)c1OC)-c1ccc(OC)c(=O)cc1[C@@H](N(C)C(=O)CCCO[N+](=O)[O-])CC2 | 
 | < 4.00 | COc1cc2c(c(OC)c1OC)-c1ccc(OC)c(=O)cc1[C@@H](N(C)C(=O)c1cccc(CO[N+](=O)[O-])c1)CC2 | 
6.99 |  | COc1cc2c(c(OC)c1OC)-c1ccc(SC)c(=O)cc1[C@@H](NC(=O)c1cc(CO[N+](=O)[O-])ccc1I)CC2 | 
7.05 |  | COc1cc2c(c(OC)c1OC)-c1ccc(SC)c(=O)cc1[C@@H](NC(=O)c1ccc(Br)c(CO[N+](=O)[O-])c1)CC2 | 
8.05 |  | COc1cc2c(c(OC)c1OC)-c1ccc(SC)c(=O)cc1[C@@H](NC(=O)c1cccc(CO[N+](=O)[O-])c1[N+](=O)[O-])CC2 | pIC50 [9]: 8.15
 | < 4.00 | COc1cc2c(c(OC)c1OC)-c1ccc(OC)c(=O)cc1[C@@H](N(C)C(=O)c1ccc(CO[N+](=O)[O-])cc1)CC2 | 
 | 5.00 | COc1cc2c(c(OC)c1OC)-c1ccc(N(C)C)c(=O)cc1[C@@H](NC(=O)c1cccc(CO[N+](=O)[O-])c1)CC2 | 

Compound | pIC50 (Splenocyte [2]) | pIC50 (Splenocyte [7]) | also measured
COc1cc2c(c(OC)c1OC)-c1ccc(OC)c(=O)cc1[C@@H](NC(C)=O)CC2 [COLCHICINE] |  | 5.64 | pIC50 [8]: 8.14; pIC50 [9]: 6.26
COc1cc2c(c(OC)c1OC)-c1ccc(SC)c(=O)cc1[C@@H](NC(=O)c1ccc(CO[N+](=O)[O-])cc1)CC2 |  | 7.70 | pIC50 [8]: 6.46; pIC50 [9]: 6.41
COc1cc2c(c(OC)c1OC)-c1ccc(SC)c(=O)cc1[C@@H](NC(=O)c1cc(CO[N+](=O)[O-])ccc1F)CC2 | 8.40 |  | 
COc1cc2c(c(OC)c1OC)-c1ccc(SC)c(=O)cc1[C@@H](NC(=O)c1ccc(F)c(CO[N+](=O)[O-])c1)CC2 | 7.51 |  | 
COc1cc2c(c(OC)c1OC)-c1ccc(SC)c(=O)cc1[C@@H](NC(=O)c1cccc(CO[N+](=O)[O-])c1F)CC2 | 7.19 |  | 
COc1cc2c(c(OC)c1OC)-c1ccc(SC)c(=O)cc1[C@@H](NC(=O)c1cccc(CO[N+](=O)[O-])c1)CC2 | 7.17 | 7.15 | pIC50 [8]: 9.00; Activity (RAW264.7 [11]): Dose-dependent effect; inhibition (RAW264.7 [12]): Active; inhibition (RAW264.7 [13]): inactive; Activity (RAW264.7 [14]): Dose-dependent effect; inhibition (RAW264.7 [15]): inactive; pIC50 [9]: 9.00; Activity (RAW264.7 [10]): Non-toxic
COc1cc2c(c(OC)c1OC)-c1ccc(SC)c(=O)cc1[C@@H](NC(=O)c1cccc(CO[N+](=O)[O-])c1Cl)CC2 | 8.10 |  | Survival (Mus musculus): 12.3 days; pIC50 [9]: 8.52
COc1cc2c(c(OC)c1OC)-c1ccc(OC)c(=O)cc1[C@@H](NC(=O)c1cccc(CO[N+](=O)[O-])c1)CC2 |  | 6.60 | Ratio IC50 (Splenocyte [6]): 25
